The source made the active and inactive calls. The calls are words filed in the database; no cut-off is given here.

A short description of assay [1]: Inhibition of alpha glucosidase at 1 mM using pNPG substrate incubated for 60 mins.
For assay [2], the system named is Mus musculus. As to the kind of experiment: Antihyperglycemic activity in streptozotocin-induced diabetic Kunming mouse model assessed as blood glucose level at 100 mg/kg/day, po for 10 days measured on day 7 post dose (reference value: 23.6 +/- 4.25 mM). It counts as functional.
Assay [3] deals with Mus musculus. Briefly: Antihyperglycemic activity in streptozotocin-induced diabetic Kunming mouse model assessed as blood glucose level at 100 mg/kg/day, po for 10 days measured on day 3 post dose (reference value: 23.97 +/- 3.79 mM). Type of assay: functional.
A further assay has as its system HepG2. As to the kind of experiment: Induction of glucose consumption in human HepG2 cells at 0.1 mM assessed as glucose concentration incubated for 36 hrs. Type of assay: functional.
Assay [4] deals with Mus musculus. As to the kind of experiment: Antihyperglycemic activity in streptozotocin-induced diabetic Kunming mouse model assessed as blood glucose level at 100 mg/kg/day, po for 10 days measured on day 10 post dose (reference value: 23.03 +/- 3.94 mM). It counts as functional.
The test system of assay [5] is Mus musculus. As to the kind of experiment: Antihyperglycemic activity in streptozotocin-induced diabetic Kunming mouse model assessed as blood glucose level at 100 mg/kg/day, po for 10 days measured on day 1 post dose (reference value: 19.93 +/- 6.36 mM). It counts as functional.
For assay [6], the system named is Mus musculus. Briefly: Antihyperglycemic activity in streptozotocin-induced diabetic Kunming mouse model assessed as blood glucose level at 50 mg/kg/day, po for 10 days measured on day 1 post dose (reference value: 19.93 +/- 6.36 mM). Type of assay: functional.
Assay [7] deals with Mus musculus. Briefly: Antihyperglycemic activity in streptozotocin-induced diabetic Kunming mouse model assessed as blood glucose level at 50 mg/kg/day, po for 10 days measured on day 10 post dose (reference value: 23.03 +/- 3.94 mM). Type of assay: functional.
Assay [8] deals with Mus musculus. Briefly: Antihyperglycemic activity in streptozotocin-induced diabetic Kunming mouse model assessed as blood glucose level at 50 mg/kg/day, po for 10 days measured on day 3 post dose (reference value: 23.97 +/- 3.79 mM). It counts as functional.
Assay [9] concerns Mus musculus. As to the kind of experiment: Antihyperglycemic activity in streptozotocin-induced diabetic Kunming mouse model assessed as blood glucose level at 50 mg/kg/day, po for 10 days measured on day 7 post dose (reference value: 23.6 +/- 4.25 mM). Type of assay: functional.

For the molecule `CCC(=O)Oc1cc(O)c2c(c1)OC(c1ccc(OC)c(O)c1)CC2=O` (stereo not given), the inhibition (usually the percentage by which the read-out fell short of the control) in assay [1] is “Active”.
For `CN(C)C(=N)NC(=N)N` [METFORMIN], the Activity was found to be 14.47 mM in the assay with Mus musculus [2]; 20.72 mM in the assay with Mus musculus [3]; 2.11 mM in the assay on HepG2; 10 mM with Mus musculus [4]; 16.98 mM in the assay with Mus musculus [5].
Take `COc1ccc(C2CC(=O)c3c(O)cc(OCCCCBr)cc3O2)cc1OC` (stereo not given): the inhibition result in assay [1] is “Active”.
The same measure, in the same setting: to `COc1ccc(C2CC(=O)c3c(O)cc(OC(=O)c4ccccc4)cc3O2)cc1O` (stereo not given) belongs “Active”.
Consider `COc1ccc(C2CC(=O)c3c(O)cc(O)cc3O2)cc1O` (stereo not given), for which the inhibition result in assay [1] is “Active”.
Still for that read-out and setting: to `C[C@H]1O[C@H](O[C@H]2[C@H](O)[C@@H](O)[C@@H](O[C@H]3[C@H](O)[C@@H](O)C(O)O[C@@H]3CO)O[C@@H]2CO)[C@H](O)[C@@H](O)[C@@H]1N[C@H]1C=C(CO)[C@@H](O)[C@H](O)[C@H]1O` (stereo not given in full) belongs 54.8%.
For the molecule `COc1ccc(C2CC(=O)c3c(O)cc(OCc4ccccc4)cc3O2)cc1O` (stereo not given), the Activity was determined as 17.5 mM in the assay on Mus musculus [6]; 19.18 mM with Mus musculus [2]; 20.12 mM in the assay with Mus musculus [3]; 20.1 mM in the assay on Mus musculus [7]; 21.25 mM in the assay with Mus musculus [8]; 19.35 mM in the assay with Mus musculus [9]. For the same molecule, the values for the Activity in the assay with HepG2, with Mus musculus [4] and with Mus musculus [5] were 1.78 mM, 13.23 mM and 16.78 mM, respectively. The molecule also returned an inhibition in assay [1] of 55%.
Regarding `CCC(=O)Oc1cc(O)c2c(c1)OC(c1ccc(OC)c(OC)c1)CC2=O` (stereo not given), the inhibition entry in assay [1] is “Active”.
Turning to `CCCCOc1cc(O)c2c(c1)OC(c1ccc(OC)c(OC)c1)CC2=O` (stereo not given), in assay [1], the inhibition entry was “Active”.
The same measure, in the same setting: next, `COc1ccc(C2CC(=O)c3c(O)cc(OCc4ccccc4)cc3O2)cc1OC` (stereo not given): 53.3%; `COc1ccc(C2CC(=O)c3c(O)cc(OC(C)=O)cc3O2)cc1O` (stereo not given): “Active”.
For the molecule `COc1ccc(C2CC(=O)c3c(O)cc(O)cc3O2)cc1OC` (stereo not given), the inhibition entry in [1] is “Active”.
